According to patent US8507472B2 (priority 2010, dated 2013):

Legend:
Alternaria solani = test: Alternaria test (tomato)/protective; assay type: in vivo; conditions: in vivo
Summary of the method: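 Treatment was protective: spray application at the stated rate came one day before spore inoculation. Incubation was 24 h at 22 °C and 100% humidity, then 20 °C and 96% humidity. Infection was rated at day 7 as % efficacy against the control, with 100% meaning no disease.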

Leptosphaeria nodorum = Leptosphaeria nodorum test (wheat)/protective; assay type: in vivo; conditions: in vivo
Procedure: Solvent: 49 parts by weight of N,N-dimethylformamide
(§1) Emulsifier: 1 part by weight of alkylaryl polyglycol ether
To produce a suitable preparation of active compounds, 1 part by weight of active compound is mixed with the stated amounts of solvent and emulsifier, and the concentrate is diluted with water to the desired concentration.
To test for protective activity, young wheat plants are sprayed with the active compound preparation at the stated application rate. 1 day after the treatment, the plants are inoculated with an aqueous spore suspension of Leptosphaeria nodorum and then remain at 100% rel. atmospheric humidity and 22° C. for 48 h. The plants are then placed in a greenhouse at 90% rel. atmospheric humidity and a temperature of 22° C.
Evaluation is carried out 7-9 days after the inoculation. 0% means an efficacy which corresponds to that of the control, whereas an efficacy of 100% means that no infection is observed.

Phytophthora infestans = assay type: in vivo; conditions: in vivo
Puccinia triticina = Puccinia triticina test (wheat)/protective; assay type: in vivo; conditions: in vivo
Procedure: Solvent: 49 parts by weight of […]
as §1
(§2) To produce a suitable preparation of active compound, 1 part by weight of active compound is mixed with the stated amounts of solvent and emulsifier, and the concentrate is diluted with water to the desired concentration.
(§3) To test for protective activity, young plants are sprayed with the active compound preparation at the stated application rate.
After the spray coating has dried on, the plants are sprayed with spores of a spore suspension of Puccinia triticina. The plants remain in an incubation cabin at 20° C. and 100% relative atmospheric humidity for 48 hours.
The plants are placed in greenhouse at a temperature of about 20° C. and a relative atmospheric humidity of about 80%.
Evaluation is carried out 8 days after the inoculation. 0% means an efficacy which corresponds to that of the control, whereas an efficacy of 100% means that no infection is observed.

Septoria tritici = Septoria tritici test (wheat)/protective; assay type: in vivo; conditions: in vivo
Procedure: (§4) Solvent: 49 parts by weight of N,N-dimethylacetamide
as §1
To produce a suitable preparation of active compound, 1 part by weight of active compound is mixed with the stated amount of solvent and emulsifier, and the concentrate is diluted with water to the desired concentration.
To test for protective activity, young plants are sprayed with the active compound preparation at the stated application rate. After the spray coating has dried on, the plants are sprayed with a spore suspension of Septoria tritici. The plants remain in an incubation cabin at 20° C. and 100% relative atmospheric humidity for 48 hours. The plants are then placed under a translucent hood at 15° C. and 100% relative atmospheric humidity for a further 60 hours.
The plants are placed in a greenhouse at a temperature of about 15° C. and a relative atmospheric humidity of 80%.
Evaluation is carried out 21 days after the inoculation. 0% means an efficacy which corresponds to that of the control, whereas an efficacy of 100% means that no infection is observed.

DON/AcDON production = test: microbe, parasite or virus in culture; assay type: cell-based, Fusarium graminearum; conditions: 7 days at 28° C.
Fusarium graminearum [1] = test: microbe, parasite or virus in culture; assay type: cell-based; conditions: 50 μM
Sphaerotheca fuliginea = test: Sphaerotheca test (cucumber)/protective; assay type: in vivo; conditions: in vivo
Summary of the method: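 Infection was rated 7 days after spore inoculation as % efficacy (0% = control level, 100% = no disease). Inoculation followed 1 day after preventive spray of young cucumbers with compound formulated in N,N-dimethylformamide plus emulsifier and diluted with water; plants were held at 23 °C and 70% relative humidity.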

Uromyces appendiculatus = test: Uromyces test (bean)/protective; assay type: in vivo; conditions: in vivo
Procedure: (§5) Solvents: 24.5 parts by weight of acetone
(§6) • 24.5 parts by weight of dimethylacetamide Emulsifier: 1 part by weight of alkylaryl polyglycol ether
(§7) To produce a suitable preparation of active compound, 1 part by weight of active compound is mixed with the stated amounts of solvents and emulsifier, and the concentrate is diluted with water to the desired concentration.
(§8) To test for protective activity, young plants are sprayed with the active compound preparation at the stated application rate. After the spray coating has dried on, the plants are inoculated with an aqueous spore suspension of the bean rust pathogen Uromyces appendiculatus and then remain in an incubation cabin at about 20° C. and 100% relative atmospheric humidity for 1 day.
(§9) The plants are then placed in a greenhouse at about 21° C. and a relative atmospheric humidity of about 90%.
(§10) Evaluation is carried out 10 days after the inoculation. 0% means an efficacy which corresponds to that of the control, whereas an efficacy of 100% means that no infection is observed.

[2] = test system: Fusarium nivale (var. majus); test: Fusarium nivale (var. majus) test (wheat)/protective; assay type: in vivo; conditions: 1000 ppm active compound, protective, evaluation 5 days after inoculation
Procedure: as §4, §1, §2, §3
After the spray coating has dried on, the plants are sprayed with spores of a spore suspension of Fusarium nivale (var. majus).
The plants are placed in a greenhouse chamber under a translucent incubation hood at 10° C. and 100% relative atmospheric humidity.
Evaluation is carried out 5 days after the inoculation. 0% means an efficacy which corresponds to that of the control, whereas an efficacy of 100% means that no infection is observed.

Botrytis cinerea = test: Botrytis test (bean)/protective; assay type: in vivo; conditions: 100 ppm active compound, protective, evaluation 2 days after inoculation
Procedure: as §5, §6, §7
To test for protective activity, young plants are sprayed with the active compound preparation at the stated application rate. After the spray coating has dried on, 2 small pieces of agar colonized by Botrytis cinerea are placed onto each leaf. The inoculated plants are placed in a dark chamber at about 20° C. and 100% relative atmospheric humidity.
2 days after the inoculation, the size of the infected areas on the leaves is evaluated. 0% means an efficacy which corresponds to that of the control, whereas an efficacy of 100% means that no infection is observed.

Pyrenophora teres = Pyrenophora teres test (barley)/protective; assay type: in vivo; conditions: in vivo
Summary of the method: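 Efficacy, read 7-9 days after spore inoculation, runs from 0% (equal to untreated control) to 100% (no infection). Barley sprayed with water-diluted DMF/emulsifier formulation was inoculated one day later, incubated 48 h at 22° C. and 100% rel. humidity, then held at 20° C. and 80% humidity.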

Venturia inaequalis = test: Venturia test (apple)/protective; assay type: in vivo; conditions: 100 ppm active compound, protective, evaluation 10 days after inoculation
Procedure: Solvents: 24.5 parts by weight of acetone • 24.5 parts by weight of dimethylacetamide Emulsifier: 1 part by weight of alkylaryl polyglycol ether
as §7
as §8, with “conidia” for “spore”, “apple scab” for “bean rust”, “Venturia inaequalis” for “Uromyces appendiculatus”
as §9, §10

Fusarium graminearum [3] = assay type: in vivo; conditions: in vivo

Row | SMILES | efficacy in % (Alternaria solani) [%] | efficacy in % (Leptosphaeria nodorum) [%] | efficacy in % (Phytophthora infestans) [%] | efficacy in % (Puccinia triticina) [%] | efficacy in % (Septoria tritici) [%] | % inhibition of DON/AcDON at 50 μM (DON/AcDON production) [%] | % inhibition of the fungal growth of Fusarium graminearum at 50 μM (Fusarium graminearum [1]) [%] | efficacy in % (Sphaerotheca fuliginea) [%] | efficacy in % (Uromyces appendiculatus) [%] | efficacy in % [2] [%] | efficacy in % (Botrytis cinerea) [%] | efficacy in % (Pyrenophora teres) [%] | efficacy in % (Venturia inaequalis) [%] | efficacy in % (Fusarium graminearum [3]) [%]
1 | C[C@H](O)C(=O)Nc1cc(-c2c(-c3ccccc3)nn3c2CCCC3)ccn1 [Example 25] | 100 | 95 | 80 | 88 | 86 | 99 | 92 | 94 | 94 | 100 | 90 | 100 | 94 | 
2 | COC(=O)Nc1cc(-c2c(-c3ccccc3)nn3c2CCCC3)ccn1 [Example 27] | 100 |  | 80 | 75 |  | 99 | 56 |  | 94 | 86 | 92 | 90 | 89 | 94
3 | O=C(Nc1cc(-c2c(-c3ccccc3)nn3c2CCCC3)ccn1)c1ccccc1 [Example 33] | 89 | 70 | 70 |  |  | 99 | 100 | 95 | 95 |  | 98 | 78 | 95 | 
4 | O=CNc1cc(-c2c(-c3ccccc3)nn3c2CCCC3)ccn1 [Example 37] | 95 | 90 | 70 | 78 |  | 99 | 93 |  |  | 86 |  | 100 |  | 
5 | CN(C)C=Nc1cc(-c2c(-c3ccccc3)nn3c2CCCC3)ccn1 [Example 38] | 95 |  | 70 |  |  | 99 | 89 |  |  | 86 |  | 95 |  | 
6 | Fc1ccc(-c2nn3c(c2-c2ccncc2)CCCCC3)cc1 [Example 43] | 94 | 90 | 70 | 100 | 100 | 98 | 100 |  | 90 | 80 | 99 | 95 | 98 | 
7 | O=C(Nc1cc(-c2c(-c3ccc(F)cc3)nn3c2CCCC3)ccn1)c1ccsc1 [Example 47] | 90 |  | 80 |  | 100 | 100 | 76 | 96 |  | 80 |  | 90 |  | 
8 | CC(C)(O)C(=O)Nc1cc(-c2c(-c3ccccc3)nn3c2CCCC3)ccn1 [Example 50] | 95 |  |  | 86 | 90 | 92 | 57 | 94 |  | 83 |  | 95 | 88 | 83
9 | O=C(Nc1cc(-c2c(-c3ccccc3)nn3c2CCCC3)ccn1)c1ccsc1 [Example 51] | 95 |  |  |  |  | 100 | 41 |  | 86 |  | 99 | 90 | 74 | 
10 | CC(C)(O)C(=O)Nc1cc(-c2c(-c3ccc(F)cc3)nn3c2CCCC3)ccn1 [Example 55] | 80 | 90 |  | 100 | 90 |  |  | 95 |  | 100 |  | 95 |  | 83
11 | CCC(=O)Nc1cc(-c2c(-c3ccsc3)nn3c2CCCC3)ccn1 [Example 59] | 70 | 89 |  | 100 |  | 100 | 100 | 98 |  | 100 | 100 | 90 | 97 | 94
12 | CC(C)CC(=O)Nc1cc(-c2c(-c3ccsc3)nn3c2CCCC3)ccn1 [Example 64] | 100 | 94 | 80 |  |  | 100 | 100 | 86 | 78 |  | 100 | 100 | 99 | 
13 | O=C(Nc1cc(-c2c(-c3cccs3)nn3c2CCCC3)ccn1)C1CC1 [Example 89] | 90 | 80 | 90 |  |  |  |  | 100 | 95 |  | 100 | 95 | 94 | 
